We go through 5 molecules from PMC5215691 (2017).

Test [1] concerns KBA 3-1 (DNA, aptamer) CGGAAGCGCGCCACCCCATCGGCGGGCGCGAAGCTTGCG
Briefly: ELONA (biotin-aptamer, streptavidin-HRP). The settings on record: for binding: immobilised compound, 1 μM aptamer.

For test [2], the system named is FAM-labeled KBA 3-1 (DNA, aptamer) CGGAAGCGCGCCACCCCATCGGCGGGCGCGAAGCTTGCG
Briefly: RGO fluorescence quenching/recovery. The settings on record: 1X PBS pH 8.5, room temperature, 100 nM aptamer, 0.1 mg/mL RGO.

The test system of test [3] is KBA 2 (DNA, aptamer) ATGCGGATCCCGCGCGACCAACGGAAGCGCGCCACCCCATCGGCGGCGCGAAGCTTGCGC
Put plainly: ELONA (biotin-aptamer, streptavidin-HRP). The settings on record: for binding: immobilised compound, 1 μM aptamer.

In test [4] the test system is KBA 1-1 (DNA, aptamer) ATGCGGATCCCGCGCCGACGTCAGAGAGGCGCGCTGGTTTGCAC
Briefly: ELONA (biotin-aptamer, streptavidin-HRP). The settings on record: not given; 1X PBS/PBST (concentrations not given); immobilised compound (amide bond on NOS plate); apparent.

In test [5] the test system is KBA 3-2 (DNA, aptamer) CGCCACCCCATCGGCGGGCG
Briefly: ELONA (biotin-aptamer, streptavidin-HRP). The settings on record: not given; 1X PBS/PBST (concentrations not given); immobilised compound (amide bond on NOS plate); apparent.

The test system of test [6] is KBA 1 (DNA, aptamer) ATGCGGATCCCGCGCCGACGTCAGAGAGGCGCGCTGGTTTGCACCGCGCGAAGCTTGCGC
Briefly: ELONA (biotin-aptamer, streptavidin-HRP). The settings on record: not given; 1X PBS/PBST (concentrations not given); immobilised compound (amide bond on NOS plate); apparent.

Test [7] has as its system KBA 2-1 (DNA, aptamer) CGGAAGCGCGCCACCCCATCGGCGGCGCGAAGCTTGCG
Put plainly: ELONA (biotin-aptamer, streptavidin-HRP). The settings on record: not given; 1X PBS/PBST (concentrations not given); immobilised compound (amide bond on NOS plate); apparent.

Test [8] has as its system KBA 1-2 (DNA, aptamer) CGCGCCGACGTCAGAGAGGCGCG
Briefly: ELONA (biotin-aptamer, streptavidin-HRP). The settings on record: not given; 1X PBS/PBST (concentrations not given); immobilised compound (amide bond on NOS plate); apparent.

Test [9] has as its system KBA 3 (DNA, aptamer) ATGCGGATCCCGCGCACCAACGGAAGCGCGCCACCCCATCGGCGGGCGCGAAGCTTGCGC
Put plainly: ELONA (biotin-aptamer, streptavidin-HRP). The settings on record: not given; 1X PBS/PBST (concentrations not given); immobilised compound (amide bond on NOS plate); apparent.

The subject of test [10] is KBA 2-2 (DNA, aptamer) CGCCACCCCATCGGCGGCG
Put plainly: ELONA (biotin-aptamer, streptavidin-HRP). The settings on record: not given; 1X PBS/PBST (concentrations not given); immobilised compound (amide bond on NOS plate); apparent.

The mark [11] stands for this setting: not given, 1X PBS/PBST (concentrations not given), immobilised compound (amide bond on NOS plate), apparent.

For the molecule `CC1(C)S[C@@H]2[C@H](NC(=O)[C@H](N)c3ccccc3)C(=O)N2[C@H]1C(=O)O`, the binding result in test [1] was “weak”; in test [2] (1 μM ampicillin) it was “no”; in test [3], “weak”.

As for `NC[C@H]1O[C@H](O[C@H]2[C@H](O)[C@@H](O[C@H]3O[C@H](CO)[C@@H](O)[C@H](N)[C@H]3O)[C@H](N)C[C@@H]2N)[C@H](O)[C@@H](O)[C@@H]1O`, the “Kd^app” value in [4] was 268 ± 26.7 nM; in test [5], 239 ± 52.5 nM; in test [6], 268 ± 20.8 nM; in test [1] (setting [11]), 92.3 ± 29.1 nM; in test [7], 182 ± 57.2 nM; in test [8] it was 669 ± 10.7 nM. Moreover, the “Kd^app” value is 34.7 ± 35.6 nM in test [3] (setting [11]), 341 ± 12.8 nM in [9] and 564 ± 92.5 nM in [10]. In test [2] (1 pM to 1 μM kanamycin), the binding result is reported as “yes”.

On to `CN[C@@H]1[C@H](O[C@H]2[C@H](O[C@H]3[C@H](O)[C@@H](O)[C@H](N=C(N)N)[C@@H](O)[C@@H]3N=C(N)N)O[C@@H](C)[C@]2(O)C=O)O[C@@H](CO)[C@H](O)[C@H]1O`, for which the binding result in test [1], in test [2] (1 μM antibiotic) and in test [3] was “weak” throughout.

Take `CN[C@@H]1[C@H](O[C@H]2[C@H](O[C@H]3[C@H](O)[C@@H](O)[C@H](N=C(N)N)[C@@H](O)[C@@H]3N=C(N)N)O[C@@H](C)[C@]2(O)CO)O[C@@H](CO)[C@H](O)[C@H]1O`: the binding result in [1], in [2] (1 μM antibiotic) and in [3] was “weak” each time.

For the molecule `CN(C)[C@@H]1C(=O)C(C(N)=O)=C(O)[C@@]2(O)C(=O)C3=C(O)c4c(O)cccc4[C@@](C)(O)[C@H]3C[C@@H]12`, the binding result in [1], in test [2] (1 μM antibiotic) and in test [3] was “weak” each time.
